The target in this assay is T1, human C3b (Homo sapiens, UniProt P01024).
T1 construct: purchased Complement Technology, Tyler, TX, USA
Description: SPR kinetic binding to immobilized human C3b. On the procedure: Experiments were conducted at 25 °C in HBST buffer (10 mM HEPES, 150 mM NaCl, and 0.05% Tween-20, pH 7.4; XanTec bioanalytics). Human C3b (Complement Technology, Tyler, TX, USA) was immobilized via amine-reactive coupling. […] Individual peptide samples were injected for 120 s, followed by a 180 s dissociation phase. […] Signals from the reference cell and buffer blank injections were subtracted within each dilution series to correct for buffer effects and injection artifacts. Data were fitted to a Langmuir 1:1 binding model to calculate association (k a) and dissociation (k d) rate constants, and the equilibration constant K D is calculated based on the equation: K D = k d/k a. In the case of Cp40 derivatives and Cp60, a single-cycle approach was used for kinetic analysis by injecting 5 increasing concentrations of each compound (0.5-40 nM) consecutively without a regeneration period in between injections. Individual injections within a cycle were 120 s long with a 5 min dissociation phase between injections. […] Analog Cp40 was included in each experimental series as a reference and internal control. Signals from the reference cell and buffer blank injections were subtracted to correct for buffer effects and injection artifacts. Kinetic data were processed in BiaEvaluation (Cytiva) using single-cycle evaluation by global fitting each data set to a Langmuir 1:1 binding model. The reported kinetic parameters (Tables and ) indicate the mean values and standard deviations of three independent experiments. SPR sensorgrams are provided in the Supporting Information.
(In general: SPR reads the build-up and loss of mass on a sensor chip optically.)

Where [1] appears, read: SPR screening at 2 and 1 μM, series up to 16 μM, read-out: affinity hC3b (class symbol N.B./W.B.).
The mark [2] stands for this setting: SPR, 1:1 Langmuir fit, average of 3 independent experiments, SD in brackets.
Setting [3] is: SPR, 1:1 Langmuir fit, average of 3 independent experiments, SD in brackets, read-out: K D, affinity hC3b.

Where two headings read alike, the source gives them in different places. Where a SMILES comes first, the peptide text is derived from it. Bridges are numbered along the chain shown (N, C = ends). [ ]: non-standard residue; d: D form. Trp(1-Me) = Cn1cc(C[C@H](N)C(=O)O)c2ccccc21; Orn = NCCC[C@H](N)C(=O)O Some results are limits rather than exact numbers.

T1 sequence (P01024 23-667 limits assumed): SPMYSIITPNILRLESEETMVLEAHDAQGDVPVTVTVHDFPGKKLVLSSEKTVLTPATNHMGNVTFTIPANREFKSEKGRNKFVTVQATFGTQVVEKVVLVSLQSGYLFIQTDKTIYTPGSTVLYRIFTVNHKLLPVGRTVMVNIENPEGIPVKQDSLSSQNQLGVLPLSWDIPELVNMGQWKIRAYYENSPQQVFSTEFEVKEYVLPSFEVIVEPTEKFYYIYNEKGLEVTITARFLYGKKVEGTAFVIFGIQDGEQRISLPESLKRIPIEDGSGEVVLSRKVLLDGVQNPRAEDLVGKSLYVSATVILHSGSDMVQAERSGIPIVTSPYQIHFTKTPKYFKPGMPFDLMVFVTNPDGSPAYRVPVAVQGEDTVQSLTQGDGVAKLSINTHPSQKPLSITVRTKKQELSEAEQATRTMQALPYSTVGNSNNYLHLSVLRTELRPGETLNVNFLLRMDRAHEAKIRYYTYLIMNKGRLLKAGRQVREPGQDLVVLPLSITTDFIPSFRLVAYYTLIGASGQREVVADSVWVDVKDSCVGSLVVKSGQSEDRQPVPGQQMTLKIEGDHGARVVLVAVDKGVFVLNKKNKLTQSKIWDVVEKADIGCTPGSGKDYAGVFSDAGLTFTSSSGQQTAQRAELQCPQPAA
T1 sequence (P01024 749-1663 partner limits assumed): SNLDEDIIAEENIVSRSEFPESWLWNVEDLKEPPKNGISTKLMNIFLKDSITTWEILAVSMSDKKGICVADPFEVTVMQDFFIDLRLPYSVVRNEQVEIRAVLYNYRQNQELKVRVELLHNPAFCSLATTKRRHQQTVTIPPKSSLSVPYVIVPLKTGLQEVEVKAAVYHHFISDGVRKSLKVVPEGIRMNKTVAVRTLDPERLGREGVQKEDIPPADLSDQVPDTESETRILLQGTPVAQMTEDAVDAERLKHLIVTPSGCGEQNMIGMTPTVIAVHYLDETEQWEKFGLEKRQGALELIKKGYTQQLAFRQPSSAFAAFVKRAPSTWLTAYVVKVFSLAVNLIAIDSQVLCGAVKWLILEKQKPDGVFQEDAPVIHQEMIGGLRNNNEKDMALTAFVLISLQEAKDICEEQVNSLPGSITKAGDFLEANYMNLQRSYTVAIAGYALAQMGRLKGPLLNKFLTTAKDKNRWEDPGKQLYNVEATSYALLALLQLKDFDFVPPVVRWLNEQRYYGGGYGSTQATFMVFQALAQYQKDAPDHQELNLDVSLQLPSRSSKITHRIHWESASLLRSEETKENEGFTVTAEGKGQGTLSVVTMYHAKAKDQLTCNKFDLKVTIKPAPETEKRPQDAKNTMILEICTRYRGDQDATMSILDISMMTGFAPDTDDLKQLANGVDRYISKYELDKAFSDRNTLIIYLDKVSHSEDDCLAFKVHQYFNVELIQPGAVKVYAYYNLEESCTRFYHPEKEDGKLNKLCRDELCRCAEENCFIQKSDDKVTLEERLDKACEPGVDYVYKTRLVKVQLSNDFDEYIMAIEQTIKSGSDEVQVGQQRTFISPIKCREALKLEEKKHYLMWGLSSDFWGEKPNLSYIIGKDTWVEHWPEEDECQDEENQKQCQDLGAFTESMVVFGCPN

In the case of `CC[C@H](C)[C@H](NC(C)=O)C(=O)N[C@H]1CSSC[C@@H](C(=O)N[C@H](C(N)=O)[C@@H](C)O)NC(=O)[C@H](CCCNC(=N)N)NC(=O)[C@H](Cc2c[nH]cn2)NC(=O)[C@H](C)NC(=O)[C@@H](C)NC(=O)[C@H](Cc2c[nH]c3ccccc23)NC(=O)[C@H](CC(=O)O)NC(=O)[C@H](CCC(N)=O)NC(=O)[C@H](Cc2c[nH]c3ccccc23)NC(=O)[C@H](C(C)C)NC1=O` [Cp01-Gly8dAla] (Ac-ICVWQDW[dA]AHRCT-NH2; disulfide 2-12), where the note is “SPR”, the “binding to C3b (result in words)” value is reported as “diminished target binding”. In addition, the Kd under setting [1] is > 16 µM.
Consider `CC[C@H](C)[C@H](NC(C)=O)C(=O)N[C@H]1CSSC[C@@H](C(=O)N[C@H](C(N)=O)[C@@H](C)O)NC(=O)[C@H](CCCNC(=N)N)NC(=O)[C@H](Cc2c[nH]cn2)NC(=O)[C@H](C)NC(=O)CNC(=O)[C@H](Cc2c[nH]c3ccccc23)NC(=O)[C@H](CC(=O)O)NC(=O)[C@H](CCC(N)=O)NC(=O)[C@H](Cc2c[nH]c3ccccc23)NC(=O)C(C)(C)NC1=O` [Cp01-Val3Aib], for which, under setting [1], the Kd was > 2 µM.
For `CC[C@H](C)[C@H](NC(C)=O)C(=O)N[C@H]1CSSC[C@@H](C(=O)N[C@H](C(N)=O)[C@@H](C)O)NC(=O)[C@H](CO)NC(=O)[C@H](Cc2c[nH]cn2)NC(=O)[C@H](C)NC(=O)CNC(=O)[C@H](Cc2c[nH]c3ccccc23)NC(=O)[C@H](CC(=O)O)NC(=O)[C@H](CCC(N)=O)NC(=O)[C@H](Cc2c[nH]c3ccccc23)NC(=O)[C@H](C(C)C)NC1=O` [Cp01-Arg11Ser] (Ac-ICVWQDWGAHSCT-NH2; disulfide 2-12), the “fold affinity drop / weaker affinity compared with Cp01” value (K D ratio vs Cp01) is given as ~2 fold. In addition, under setting [2], the “k a, affinity hC3b” value is 3.3(1.2) 10^5 M^–1 s^–1 and the “k d, affinity hC3b” value is on record as 16(3) 10^–2 s^–1. The Kd under setting [3] came out at 0.529 µM.
As for `CC[C@H](C)[C@H](NC(C)=O)C(=O)N[C@H]1CSSC[C@@H](C(=O)N[C@H](C(N)=O)[C@@H](C)O)NC(=O)[C@H](CCCNC(=N)N)NC(=O)[C@H](Cc2c[nH]cn2)NC(=O)[C@H](C)NC(=O)CNC(=O)[C@H](Cc2c[nH]c3ccccc23)NC(=O)[C@H](CC(=O)O)NC(=O)[C@H](CCCN)NC(=O)[C@H](Cc2c[nH]c3ccccc23)NC(=O)[C@H](C(C)C)NC1=O` [Cp01-Gln5Orn] (Ac-ICVW[Orn]DWGAHRCT-NH2; disulfide 2-12), where the note is “SPR”, the “binding to C3b (result in words)” value was “no detectable target binding”. Further, under setting [1], the Kd was > 2 µM.
`CC[C@H](C)[C@H](NC(C)=O)C(=O)N[C@H]1CSSC[C@@H](C(=O)N[C@H](C(N)=O)[C@@H](C)O)NC(=O)[C@H](CCCNC(=N)N)NC(=O)[C@H](Cc2c[nH]cn2)NC(=O)[C@H](C)NC(=O)CNC(=O)[C@H](Cc2c[nH]c3ccccc23)NC(=O)[C@H](CC(=O)O)NC(=O)[C@H](CCC(N)=O)NC(=O)[C@H](Cc2c[nH]c3ccccc23)NC(=O)[C@H](Cc2ccccc2)NC1=O` [Cp01-Val3Phe]: the Kd under setting [1] was > 2 µM.
With `CC[C@H](C)[C@H](NC(C)=O)C(=O)N[C@H]1CSSC[C@@H](C(=O)N[C@H](C(N)=O)[C@@H](C)O)NC(=O)[C@H](CCCNC(=N)N)NC(=O)[C@H](Cc2c[nH]cn2)NC(=O)[C@H](C)NC(=O)CNC(=O)[C@H](Cc2c[nH]c3ccccc23)NC(=O)[C@H](CC(=O)O)NC(=O)[C@H](CCC(N)=O)NC(=O)[C@H](Cc2cn(C)c3ccccc23)NC(=O)[C@H]([C@@H](C)CC)NC1=O` [Cp05-Val3Ile] (Ac-ICI[Trp(1-Me)]QDWGAHRCT-NH2; disulfide 2-12), the Kd under setting [3] came to 0.0015 µM. The koff (SPR, read-out: dissociation rate k d) stood at 0.002 s⁻¹.

The record behind these values is article PMC13181761, “New Analogs of the Compstatin Family of Clinical Complement Inhibitors with Low Picomolar Target Affinity” (Journal of Medicinal Chemistry, 2026).
